From patent publication US8530507B2, “Use of levo-ornidazole in the preparation of anti-anaerobic bacteria infection drugs” (priority 2005, dated 2013)

Key:
[1] = tested on: mice; test: Effect on the coordination of balancing in mice; assay type: in vivo; details: intravenous injection
Protocol: Experiments were conducted in 9 administration groups, L-, D- and racemic ornidazole were administered to them at doses of 40, 80 and 160 mg/kg. Positive control group received chlorpromazine at a dose of 3 mg/kg.

[2] = tested on: mice; test: Effect on the hypnotic effect induced by sodium thiopental in mice; details: 40 mg/kg sodium thiopental i.p. 30 minutes later
Protocol: The same volume of 0.9% sodium chloride injection containing propylene glycol was administered in the vehicle control group. 30 minute after drug administration, 40 mg/kg of sodium thiopental was administered to mice by intraperitoneal injection. The time for the loss of righting reflex and the time for the recovery were recorded. The injection volume was 0.2 ml/10 g, the administration rate was 0.2 ml/10 sec.

[3] = tested on: Beagle dogs; details: dog, in vivo, iv, 200 mg/kg
From the text: 2. Toxicity Test in Beagle Dogs (Non-Rodent) After Intravenous Administration of L-ornidazole for Two Weeks
Beagle dogs, 4 dogs in each group with half females and half males, were divided into L-, D-, and racemic ornidazole groups.

[4] = tested on: mice; test: Effects on spontaneous activities in mice; assay type: in vivo; details: for spontaneous activity compared with the vehicle control group: recorded at 0.5, 1, 2, 3 and 4 hours
Protocol: Chlorpromazine was administered at dose of […] in the positive control group, and the same volume of propylene glycol containing 0.9% sodium chloride injection was administered in the vehicle control group. Spontaneous activity was recorded at 0.5, 1, 2, 3 and 4 hours after drug administration. The injection volume was 0.2 ml/10 g and the administration rate was 0.2 ml/10 sec.

[5] = tested on: mice; test: Hypnotic effect of intravenous injection in mice (righting reflex); assay type: in vivo; details: mice, within 30 minutes
Protocol: White mice, half males and half females, fasted for eight hours. The disappearance of righting reflex in mice was observed. The number of animals who lost their righting reflex was recorded in 30 minutes after drug administration.

[6] = In vivo pharmacokinetics in Beagle dogs
Protocol: The clinical dose of ornidazole is 500 mg for human. By calculating, based on body surface area, the pharmacokinetic experimental dose in Beagle dogs was 13 mg/kg in vivo. Six adult beagle dogs (half males and half females, body weight of 9˜11.5 kg) were randomly divided into three groups. According to crossover design, intravenous injection of L-, D-, and racemic ornidazole were administered in turn to each dog every other week (with one week washout period in between). 2 ml of blood was collected from the vein located at the forelimb of the dogs before drug administration and 0.083, 0.5, 1.0, 2.0, 4.0, 6.0, 8.0, 12.0, 16.0, 24.0 hours after drug administration, which was then placed in the heparinized tube, followed by centrifugation to obtain the plasma. Plasma concentration of drug was determined by HPLC. Pharmacokinetics parameters were estimated using the non-compartmental models. The corresponding pharmacokinetics parameters were obtained by BAPP2.0 using the data of plasma concentration of blood with time obtained above.

[7] = beagle dogs, individual intravenous dose 13 mg/kg, plasma

Cc1ncc([N+](=O)[O-])n1C[C@@H](O)CCl [D-ornidazole]
effect on the coordination and balance (number of falling animals) ([1]; 160 mg/kg): significant effect | effect on the coordination and balance, compared with the vehicle control group ([1]; doses of 40 and 80 mg/kg): no significant effect | duration of sleeping induced by sodium thiopental, compared with the vehicle control group ([2]; 40 mg/kg intravenous): significantly extended | sleep latency induced by sodium thiopental, compared with the vehicle control group ([2]; 40 mg/kg intravenous): significantly reduced | duration of sleeping induced by sodium thiopental, compared with the vehicle control group ([2]; 80 mg/kg intravenous): significantly extended | sleep latency induced by sodium thiopental, compared with the vehicle control group ([2]; 80 mg/kg intravenous): significantly reduced | food intake and body weight [3]: significantly inhibited | histological examination of organs [3]: significant pathological changes were not observed | manifestations (toxicity and side effects) [3]: drooling, vomiting, myasthenia of limbs, astasia, hyperspasmia | number of Purkinje cells in cerebellum (histological examination) [3]: significantly reduced | recovery of spontaneous activity ([4]; 40 mg/kg intravenous): gradually become normal after 3 hours | spontaneous activity compared with the vehicle control group ([4]; 40 mg/kg intravenous): reduced significantly at 0.5, 1 and 2 hours | recovery of spontaneous activity ([4]; 80 mg/kg intravenous): not recovered in 4 hours | spontaneous activity compared with the vehicle control group ([4]; 80 mg/kg intravenous): reduced significantly at 0.5, 1, 2, 3 and 4 hours | recovery of spontaneous activity ([4]; 160 mg/kg intravenous): not recovered in 4 hours | spontaneous activity compared with the vehicle control group ([4]; 160 mg/kg intravenous): reduced significantly at 0.5, 1, 2, 3 and 4 hours | number of mice with loss in righting reflex ([5]; individual dose of 160 mg/kg intravenous): 10 mice | loss in righting reflex ([5]; individual dose of 40 or 80 mg/kg intravenous): No loss in righting reflex | AUC0-t (area under curve) [6, 7]: 66.57 ± 10.51 µg·h/mL | Cl (clearance) [6, 7]: 1.59 ± 0.28 L/h | MRT (mean retention time of drugs) [6, 7]: 8.74 ± 3.30 h | Vβ (elimination volume of distribution) [6, 7]: 13.59 ± 4.99 L | in vivo transformation of enantiomers between L- and D-ornidazole ([6]; dog, in vivo, iv): not occurred | t1/2 (half life) ([6]; dog, in vivo, iv, 13 mg/kg): 6.06 ± 2.29 h
